Where a SMILES comes first, the peptide text is derived from it. Where no end group is shown, it is not given here.
How the values were obtained:
RXFP3 [1] = target: T1, RXFP3 (Homo sapiens, UniProt Q9NSD7); test: cAMP activity assay: inhibition of forskolin-induced cAMP accumulation in CHO-K1 cells stably expressing RXFP3; assay type: cell-based; details: for EC50: CHO-K1 cells stably expressing RXFP3, inhibition of cAMP accumulation stimulated by 5 μM forskolin, mean ± SEM, triplicates, three independent experiments; for maximum cAMP accumulation inhibition: at the highest concentration tested, CHO-K1 cells expressing RXFP3, forskolin-stimulated (Figure 3)
T1 construct: expressed in transfected cells; host or cells: CHO-K1
T1 sequence (Q9NSD7 1-469): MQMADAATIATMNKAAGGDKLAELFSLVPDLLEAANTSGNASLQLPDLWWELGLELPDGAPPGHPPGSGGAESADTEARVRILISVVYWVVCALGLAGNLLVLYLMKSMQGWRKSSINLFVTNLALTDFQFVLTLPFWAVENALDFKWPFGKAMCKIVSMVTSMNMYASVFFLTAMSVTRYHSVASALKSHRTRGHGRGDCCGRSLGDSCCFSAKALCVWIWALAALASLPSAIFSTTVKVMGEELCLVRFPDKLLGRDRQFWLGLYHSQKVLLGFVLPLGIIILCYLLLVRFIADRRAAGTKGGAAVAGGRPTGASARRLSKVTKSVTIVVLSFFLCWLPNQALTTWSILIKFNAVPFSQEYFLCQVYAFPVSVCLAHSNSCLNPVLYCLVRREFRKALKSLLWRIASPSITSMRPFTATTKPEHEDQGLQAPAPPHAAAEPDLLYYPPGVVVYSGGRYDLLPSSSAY
Protocol: CHO-KI cells stably expressing RXFP3 were used to study the ability of the novel analogues to inhibit forskolin-induced cAMP accumulation. Assays were conducted as previously described. Briefly, 5 μM forskolin was used to stimulate the cells and increasing concentrations of the novel analogues were added to measure the dose-dependent reduction in the cAMP response via activation of the Gi/o-coupled RXFP3. Each analogue was tested in triplicates and each experiment was independently repeated three times. Data are presented as mean ± SEM and were analysed using GraphPad Prism 8.0. Statistical analyses were conducted using 1-way ANOVA and uncorrected Fisher’s least square difference.
(§1) To determine their binding affinity, the ability of increasing concentration of analogues to compete with europium labelled R3 B1-22R were measured using CHO cells stably expressing RXFP3 [37]. Their potency at RXFP3 was measured by inhibition of cAMP accumulation induced by forskolin, as RXFP3 couples to an inhibitory G-protein.

RXFP3 [2] = target: T1, RXFP3; test: Competition binding assay with Eu-labelled R3 B1-22R on CHO-K1 cells stably expressing RXFP3; details: SEM; read-out: pKi [logM] (converted)
Protocol: Determination of binding affinity in this study was carried out as previously described. Briefly, CHO-K1 cells stably expressing RXFP3 [38] were treated with 5 nM Eu-labelled R3 B1-22R with increasing concentrations of novel analogues. Fluorescence measurement were recorded with 340 nm excitation and 614 nm emission wavelengths. Assays were conducted in triplicates and independently repeated at least three times. […] Statistical analyses were conducted using 1-way ANOVA with uncorrected Fisher’s least square difference in GraphPad Prism 8.0.
as §1

RXFP3 [3] = target: T1, RXFP3; set-up: method as in 2 sources, one per row (each row's own in cited_ref): ref [37] = [37]; PMID 25792111; doi:10.1007/s00726-015-1961-x; 37. Haugaard-Kedström L.M. Wong L.L. Bathgate R.A. Rosengren K.J. Synthesis and pharmacological characterization of a europium-labelled single-chain antagonist for binding studies of the relaxin-3 rec ||| ref [28] = [28]; PMID 27464307; doi:10.1021/acs.jmedchem.6b00265; 28. Hojo K. Hossain M.A. Tailhades J. Shabanpoor F. Wong L.L. Ong-Palsson E.E. Kastman H.E. Ma S.K. Gundlach A.L. Rosengren K.J. Development of a single-chain peptide agonist of the relaxin-3 receptor; details: read-out: Kd for Eu-R3 B1-22R; Kd of the Eu-labelled tracer at RXFP3, used to calculate pKi values; assay as previously described; ref [37]; cited from earlier work

Compound	EC50 (RXFP3 [1])	maximum cAMP accumulation inhibition (RXFP3 [1])	Ki (RXFP3 [2])	EC50 (RXFP3 [1]; SEM)	Kd (RXFP3 [3])
CC[C@H](C)[C@H](NC(=O)[C@H](Cc1ccccc1)NC(=O)C(C)(C)NC(=O)[C@H](CCCNC(=N)N)NC(=O)CNC(=O)[C@H](CO)NC(C)=O)C(=O)N[C@@H](CCCNC(=N)N)C(=O)NC(C)(C)C(=O)N[C@H](C(=O)N[C@H](C(=O)N[C@@H](Cc1ccccc1)C(=O)N[C@H](C(=O)NC(C)(C)C(=O)NCC(=O)NCC(=O)N[C@@H](CO)C(=O)N[C@@H](CCCNC(=N)N)C(=O)N[C@@H](Cc1c[nH]c2ccccc12)C(=O)O)[C@@H](C)O)[C@@H](C)CC)C(C)C [Analogue 8] (HELM PEPTIDE1{[ac].S.G.R.[Aib].F.I.R.[Aib].V.I.F.T.[Aib].G.G.S.R.W}$$$$V2.0)	> 10000 nM	~ 50%	955 nM		
CC[C@H](C)[C@H](NC(=O)[C@H](Cc1ccccc1)NC(=O)C(C)(C)NC(=O)[C@H](CCCNC(=N)N)NC(=O)CNC(=O)[C@@H](N)CO)C(=O)N[C@@H](CCCNC(=N)N)C(=O)NC(C)(C)C(=O)N[C@H](C(=O)N[C@H](C(=O)N[C@@H](Cc1ccccc1)C(=O)N[C@H](C(=O)NC(C)(C)C(=O)NCC(=O)NCC(=O)N[C@@H](CO)C(=O)N[C@@H](CCCNC(=N)N)C(=O)N[C@@H](Cc1c[nH]c2ccccc12)C(=O)O)[C@@H](C)O)[C@@H](C)CC)C(C)C [Analogue 7] (HELM PEPTIDE1{S.G.R.[Aib].F.I.R.[Aib].V.I.F.T.[Aib].G.G.S.R.W}$$$$V2.0)	> 10000 nM	~ 50%	1120 nM		
CC[C@H](C)[C@@H]1NC(=O)[C@H](Cc2ccccc2)NC(=O)[C@@H](NC(=O)[C@H](CCCNC(=N)N)NC(=O)CNC(=O)[C@H](CO)NC(C)=O)CSCC(=O)CSC[C@@H](C(=O)N[C@H](C(=O)N[C@H](C(=O)N[C@@H](Cc2ccccc2)C(=O)N[C@H](C(=O)N[C@@H](CO)C(=O)NCC(=O)NCC(=O)N[C@@H](CO)C(=O)N[C@@H](CCCNC(=N)N)C(=O)N[C@@H](Cc2c[nH]c3ccccc23)C(=O)O)[C@@H](C)O)[C@@H](C)CC)C(C)C)NC(=O)[C@H](CCCNC(=N)N)NC1=O [Analogue 15] (HELM PEPTIDE1{[ac].S.G.R.C.F.I.R.C.V.I.F.T.S.G.G.S.R.W}|CHEM1{[O=C(C[*:1])C[*:2]]}$PEPTIDE1,CHEM1,5:R3-1:R1|PEPTIDE1,CHEM1,9:R3-1:R2$$$V2.0)			4790 nM	4790 nM	
CC[C@H](C)[C@H](NC(=O)[C@H](Cc1ccccc1)NC(=O)C(C)(C)NC(=O)[C@H](CCCNC(=N)N)NC(=O)CNC(=O)[C@@H](N)CO)C(=O)N[C@@H](CCCNC(=N)N)C(=O)NC(C)(C)C(=O)NC(C)(C)C(=O)N[C@H](C(=O)N[C@@H](Cc1ccccc1)C(=O)NC(C)(C)C(=O)N[C@@H](CO)C(=O)NCC(=O)NCC(=O)N[C@@H](CO)C(=O)N[C@@H](CCCNC(=N)N)C(=O)N[C@@H](Cc1c[nH]c2ccccc12)C(=O)O)[C@@H](C)CC [Analogue 9] (HELM PEPTIDE1{S.G.R.[Aib].F.I.R.[Aib].[Aib].I.F.[Aib].S.G.G.S.R.W}$$$$V2.0)			2000 nM	1780 nM	
Eu-R3 B1-22R: europium-labelled single-chain antagonist used as tracer in the RXFP3 binding assay (RAAPYGVRLSGREFIRAVIFTSR; also: europium chelate label, attachment site not given here)					27.9 ± 9.4 nM
C=CCCC[C@](C)(NC(=O)[C@H](CCCNC(=N)N)NC(=O)CNC(=O)[C@H](CO)NC(C)=O)C(=O)N[C@@H](Cc1ccccc1)C(=O)N[C@H](C(=O)N[C@@H](CCCNC(=N)N)C(=O)N[C@@](C)(CCCC=C)C(=O)N[C@H](C(=O)N[C@H](C(=O)N[C@@H](Cc1ccccc1)C(=O)N[C@H](C(=O)N[C@@H](CO)C(=O)NCC(=O)NCC(=O)N[C@@H](CO)C(=O)N[C@@H](CCCNC(=N)N)C(=O)N[C@@H](Cc1c[nH]c2ccccc12)C(=O)O)[C@@H](C)O)[C@@H](C)CC)C(C)C)[C@@H](C)CC [Analogue 11] (HELM PEPTIDE1{[ac].S.G.R.[C=CCCC[C@](C)(N[*:1])C(=O)[*:2]].F.I.R.[C=CCCC[C@](C)(N[*:1])C(=O)[*:2]].V.I.F.T.S.G.G.S.R.W}$$$$V2.0)			933 nM	41.7 nM	
CC[C@H](C)[C@H](NC(=O)[C@H](Cc1ccccc1)NC(=O)C(C)(C)NC(=O)[C@H](CCCNC(=N)N)NC(=O)CNC(=O)[C@H](CO)NC(C)=O)C(=O)N[C@@H](CCCNC(=N)N)C(=O)NC(C)(C)C(=O)N[C@H](C(=O)N[C@H](C(=O)N[C@@H](Cc1ccccc1)C(=O)N[C@H](C(=O)N[C@@H](CO)C(=O)NCC(=O)NCC(=O)N[C@@H](CO)C(=O)N[C@@H](CCCNC(=N)N)C(=O)N[C@@H](Cc1c[nH]c2ccccc12)C(=O)O)[C@@H](C)O)[C@@H](C)CC)C(C)C [Analogue 1] (HELM PEPTIDE1{[ac].S.G.R.[Aib].F.I.R.[Aib].V.I.F.T.S.G.G.S.R.W}$$$$V2.0)			562 nM	67.6 nM	

— publication PMC7602263, “Exploring the Use of Helicogenic Amino Acids for Optimising Single Chain Relaxin-3 Peptide Agonists” (Biomedicines, 2020)
